Measurements as given in the METLIN SMRT retention time set (Domingo-Almenara et al. 2019).

Assay: gradient 5% acetonitrile 3 min, to 50% in 2 min, to 85% in 15 min, held 3 min, 100 µL/min
Settings: column: Zorbax Extend-C18 2.1 x 50 mm; eluents: water / acetonitrile, 0.1% formic acid
Summary of the method: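 Values are retention times taken from adduct peaks that software picked and an analyst inspected. The pure standards were run as mixtures of ~100 molecules on HPLC linked to a quadrupole time-of-flight mass spectrometer, in positive and negative ionization mode. A Zorbax Extend-C18 column (2.1 × 50 mm, 1.8 μm) was used at 100 μL/min with water and acetonitrile, each including 0.1% formic acid.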

SMILES | RP-LC retention time
O=C(NCc1ccc2c(c1)OCO2)C1CCCN(c2nccn3nc(-c4ccc(F)cc4)cc23)C1 (stereo not drawn) | 872 s
Cc1ccccc1NC(=O)Cn1cnc2c(c1=O)CCCC2 | 662 s
COc1ccc(-c2nnc(-c3cccnc3NCc3cccc(OC)c3OC)o2)cc1 | 1060 s
CCC(=O)Nc1ccc(CCc2nc3ccc(C(=O)NCCCOC)cc3[nH]2)cc1 | 596 s
Cc1nc(CNC(=O)[C@H]2CCCN2S(=O)(=O)c2cccc(C(F)(F)F)c2)cs1 | 787 s
O=C(NCCCN1CCCCC1)C1CCCN(c2ncc(-c3ccc(F)cc3)cn2)C1 (stereo not drawn) | 684 s
COc1ccc(-c2nsc(SCC(=O)Nc3cc(C)on3)n2)cc1 | 860 s
CCn1ncn2cc(S(=O)(=O)Nc3ccccc3C)cc2c1=O | 863 s
O=C1Nc2ccccc2SC1C(=O)N1CCC(C(=O)N2CCn3c2nc2ccccc23)CC1 (stereo not drawn) | 688 s
Cc1cc(-c2nnc(-c3ccc(F)cc3)o2)c(C)n1CC(=O)Nc1ccc(F)c(F)c1 | 1040 s
Cc1nc2c(sc3nc(-c4ccccc4)ccc32)c(=O)n1CC(=O)NCc1ccccc1Cl | 1030 s
Cc1cc(C)n(-c2ccnc(N3CCc4ccccc4C3)n2)n1 | 1150 s
O=C(Nc1ccc2c(c1)N(S(=O)(=O)c1ccc(F)cc1)CCC2)C1CC1 | 852 s
COCCn1c(C)cc(O)c(C(c2ccc(SC)cc2)N2CCC(C)CC2)c1=O (stereo not drawn) | 1050 s
O=S(=O)(c1ccc(Br)cc1)N1CCc2nc(-c3ccc(F)cc3)ncc2C1 | 1170 s
C/C=C/C(=O)N1C(=O)OC[C@@H]1Cc1ccccc1 | 891 s
CCCCN(C)C(=O)C1CCN(c2nccc(C)n2)CC1 | 674 s

SMILES | RP-LC retention time
O=C(NCc1ccccc1)C1CCCN(c2ncnc3c2nc2n3CCCCC2)C1 (stereo not drawn) | 732 s
C[C@H]1CN(C(=O)c2c(F)cccc2F)C[C@@H]1c1nc(-c2ccccc2)no1 | 1020 s
O=C(Cc1c(F)cccc1Cl)NC1CCN(c2cc(-c3ccccc3)[nH]n2)C1 (stereo not drawn) | 638 s
Cc1ccn2cc(-c3ccc(NS(=O)(=O)c4ccc(I)cc4)cc3)nc2n1 | 701 s
O=C(c1csc(-c2cnccn2)n1)N1CCN(c2ccccc2Cl)CC1 | 866 s
Cc1nc2ccn(Cc3cccs3)c(=O)c2cc1C(=O)NC1CCCC1 | 736 s
CNC(=O)N1CCCC(c2cccc(C(=O)NC(C)c3ccc(F)cc3)c2)C1 (stereo not drawn) | 792 s
Cc1cc2nc(NC3=NCN(CCO)CN3)nc(C)c2cc1C | 597 s
Clc1cccc(-c2noc(Cc3nnc(-c4ccccc4)o3)n2)c1 | 1070 s
O=C(Oc1ccccc1)N1CCC(CNS(=O)(=O)c2ccc(F)c(Cl)c2)CC1 | 951 s
COC(=O)c1c(NCc2cccc(OC)c2)c2cc(Cl)ccc2[nH]c1=O | 816 s
CCn1cnc(S(=O)(=O)N2CCC(C(=O)NCCc3ccc(OC)c(OC)c3)CC2)c1 | 661 s
CCN1C(=O)COc2ccc(-c3noc(CNS(=O)(=O)c4ccc(Cl)cc4)n3)cc21 | 904 s
Cc1cc(N2CCN(S(=O)(=O)c3ccc(-c4ccccc4)cc3)CC2)nc(NC2CCCCC2)n1 | 970 s
CCCCn1cc(S(=O)(=O)NCc2ccccc2C(F)(F)F)c2cccnc21 | 1040 s
O=C(C1=CN(c2cccc(F)c2)c2cc(F)ccc2S1(=O)=O)N1CCCCC1 | 872 s
